# Laboratory results taken from US20050137233A1, “Prodrugs of 1-methyl-2-(4-amidinophenylaminomethyl)-benzimidazol-5-yl-carboxylic acid-(N-2-pyridyl-N-2-hydroxycarbonylethyl)-amide” (Boehringer Ingelheim Pharma GmbH & Co. KG, priority 2002, published 2005).
# Assays:
# [1] = system: female rabbits; assay: local tolerance after subcutaneous administration, histological comparison of injection sites with placebo sites; assay type: in vivo
# Source text: For example the compounds • A=1-methyl-2-[4-(N-hydroxyamidino)-phenylaminomethyl]-benzimidazol-5-yl-carboxylic acid-(N-2-pyridyl-N-2-ethoxycarbonylethyl)-amide and • B=1-methyl-2-[4-(N-methoxycarbonylamidino)-phenylaminomethyl]-benzimidazol-5-yl-carboxylic acid-(N-2-pyridyl-N-2-hydroxycarbonylethyl)-amide were investigated for their degree of tolerance when administered by subcutaneous route by comparison with active substance II:
# Solutions of the test substances were each administered by subcutaneous route once a day on three successive days to two female rabbits (age: 11 to 14 weeks, weight: 2.0 to 3.5 kg). At the same time as the substances were administered a placebo solution was injected contralaterally into the same animal. The animals were killed 48 hours after the last administration and dissected. The injection sites for administering the test substances were compared histologically with the sites of the placebo injections.
# [2] = conversion of the prodrugs into active substance II, plasma concentration by HPLC-MS/MS after subcutaneous administration; assay type: in vivo; settings: rabbits, after subcutaneous injection, active substance II measured in plasma, detection limit 4 ng/ml
# Description: In order to investigate the conversion of the prodrugs A and B into the active substance II, 1.0 ml of blood were taken from the central auricular artery of each of the test animals with K-EDTA syringes at various times after subcutaneous administration. The blood was centrifuged and the plasma was acidified with the same volume of 0.2 M hydrochloric acid. These solutions were stored at −20° C. The concentrations of the active substance II were measured using an HPLC-MS/MS apparatus (Perkin Elmer Sciex API 300 LC-MS/MS system). The detection limit was 4 ng/ml.
compound,measurement,setting,value
"Cn1c(CNc2ccc(C(=N)N)cc2)nc2cc(C(=O)N(CCC(=O)O)c3ccccn3)ccc21 [II, 1-methyl-2-(4-amidinophenylaminomethyl)-benzimidazol-5-yl-carboxylic acid-(N-2-pyridyl-N-2-hydroxycarbonylethyl)-amide]",degree of tolerance at the injection sites when administered by subcutaneous route,"[1]; rabbit, in vivo, sc",clear signs of inflammation at the injection sites
"COC(=O)/N=C(/N)c1ccc(NCc2nc3cc(C(=O)N(CCC(=O)O)c4ccccn4)ccc3n2C)cc1 [B, 1-methyl-2-[4-(N-methoxycarbonylamidino)-phenylaminomethyl]-benzimidazol-5-yl-carboxylic acid-(N-2-pyridyl-N-2-hydroxycarbonylethyl)-amide]",conversion of the prodrug into the active substance II,[2],converted into the active substance II
same,degree of tolerance at the injection sites when administered by subcutaneous route,"[1]; female rabbits, subcutaneous once a day on three successive days, histology 48 hours after the last administration, versus contralateral placebo injection",very well tolerated locally
"CCOC(=O)CCN(C(=O)c1ccc2c(c1)nc(CNc1ccc(/C(N)=N\O)cc1)n2C)c1ccccn1 [A, 1-methyl-2-[4-(N-hydroxyamidino)-phenylaminomethyl]-benzimidazol-5-yl-carboxylic acid-(N-2-pyridyl-N-2-ethoxycarbonylethyl)-amide]",conversion of the prodrug into the active substance II,[2],converted into the active substance II
same,degree of tolerance at the injection sites when administered by subcutaneous route,"[1]; rabbit, in vivo, sc",very well tolerated locally
